PubChem BioAssay (NCI)
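Each compound was tested at five concentrations against cells in 96-well plates for 48 hours. GI50: concentration for 50% inhibition of growth. TGI: total growth inhibition.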

Experiments:
Test in all cases: NCI tumour cell line growth inhibition, 48 h; in the data active = GI50 below about 0.43 µM; inactive = the rest
UO-31 renal = system: UO-31 renal
SK-MEL-5 melanoma = system: SK-MEL-5 melanoma
HCT-15 colon = system: HCT-15 colon
M14 melanoma = system: M14 melanoma
SK-OV-3 ovarian = system: SK-OV-3 ovarian
HCC-2998 colon = system: HCC-2998 colon
SW-620 colon = system: SW-620 colon
A549 NSCLC = system: A549 NSCLC
MDA-MB-231 breast = system: MDA-MB-231 breast
UACC-257 melanoma = system: UACC-257 melanoma
SK-MEL-2 melanoma = system: SK-MEL-2 melanoma
HOP-92 NSCLC = system: HOP-92 NSCLC
EKVX NSCLC = system: EKVX NSCLC
PC-3 prostate = system: PC-3 prostate
MALME-3M melanoma = system: MALME-3M melanoma
SR leukemia = system: SR leukemia
NCI-H460 lung = system: NCI-H460 lung
T-47D breast = system: T-47D breast
SF-268 CNS = system: SF-268 CNS
RPMI-8226 leukemia = system: RPMI-8226 leukemia
HCT-116 colon = system: HCT-116 colon
MDA-MB-435 = system: MDA-MB-435
HS 578T breast = system: HS 578T breast
BT-549 breast = system: BT-549 breast
ACHN renal = system: ACHN renal
OVCAR-5 ovarian = system: OVCAR-5 ovarian
HT29 colon = system: HT29 colon
HOP-62 NSCLC = system: HOP-62 NSCLC
NCI-H522 lung = system: NCI-H522 lung
A498 renal = system: A498 renal
LOX IMVI melanoma = system: LOX IMVI melanoma
NCI/ADR-RES ovarian = system: NCI/ADR-RES ovarian
786-0 renal = system: 786-0 renal
TK-10 renal = system: TK-10 renal
CCRF-CEM leukemia = system: CCRF-CEM leukemia
OVCAR-4 ovarian = system: OVCAR-4 ovarian
SF-539 CNS = system: SF-539 CNS
SF-295 CNS = system: SF-295 CNS
K-562 leukemia = system: K-562 leukemia
IGROV1 ovarian = system: IGROV1 ovarian
UACC-62 melanoma = system: UACC-62 melanoma
DU-145 prostate = system: DU-145 prostate
KM12 colon = system: KM12 colon
RXF 393 renal = system: RXF 393 renal
MOLT-4 leukemia = system: MOLT-4 leukemia
SK-MEL-28 melanoma = system: SK-MEL-28 melanoma
SNB-19 CNS = system: SNB-19 CNS
U251 CNS = system: U251 CNS
MCF7 breast = system: MCF7 breast
OVCAR-8 ovarian = system: OVCAR-8 ovarian
CAKI-1 renal = system: CAKI-1 renal
COLO 205 colon = system: COLO 205 colon
OVCAR-3 ovarian = system: OVCAR-3 ovarian
SN12C renal = system: SN12C renal

CSC(=NC#N)S/C=C/C(=O)c1cccc2ccccc12
85.5 µM: TGI (MDA-MB-435)
48.2 µM: TGI (OVCAR-3 ovarian)
43.5 µM: TGI (786-0 renal)
48.1 µM: TGI (IGROV1 ovarian)
73.4 µM: TGI (SK-MEL-28 melanoma)
61.2 µM: TGI (HOP-62 NSCLC)
81.4 µM: TGI (NCI-H522 lung)
82.9 µM: TGI (OVCAR-5 ovarian)
47.2 µM: TGI (UACC-257 melanoma)
73.5 µM: TGI (UO-31 renal)
99 µM: TGI (PC-3 prostate)
55.4 µM: TGI (SK-MEL-5 melanoma)
75.4 µM: TGI (MDA-MB-231 breast)
68.2 µM: TGI (SF-539 CNS)
56 µM: TGI (BT-549 breast)
38.6 µM: TGI (MALME-3M melanoma)
45.4 µM: TGI (TK-10 renal)
82 µM: TGI (ACHN renal)
66.6 µM: TGI (HOP-92 NSCLC)
inactive: GI50 (UO-31 renal) 26 µM | GI50 (SK-MEL-5 melanoma) 23.1 µM | GI50 (HCT-15 colon) 27.4 µM | GI50 (M14 melanoma) 29.9 µM | GI50 (SK-OV-3 ovarian) 61.1 µM | GI50 (HCC-2998 colon) 63 µM | GI50 (SW-620 colon) 36.9 µM | GI50 (A549 NSCLC) 29.3 µM | GI50 (MDA-MB-231 breast) 26.2 µM | GI50 (UACC-257 melanoma) 21.3 µM | GI50 (SK-MEL-2 melanoma) 34.3 µM | GI50 (HOP-92 NSCLC) 19.3 µM | GI50 (EKVX NSCLC) 26.4 µM | GI50 (PC-3 prostate) 31.3 µM | GI50 (MALME-3M melanoma) 15.8 µM | GI50 (SR leukemia) 4.71 µM | GI50 (NCI-H460 lung) 37.8 µM | GI50 (T-47D breast) 8.59 µM | GI50 (SF-268 CNS) 36.6 µM | GI50 (RPMI-8226 leukemia) 25 µM | GI50 (HCT-116 colon) 40 µM | GI50 (MDA-MB-435) 24.5 µM | GI50 (HS 578T breast) 40.4 µM | GI50 (BT-549 breast) 20.1 µM | GI50 (ACHN renal) 28.3 µM | GI50 (OVCAR-5 ovarian) 28.3 µM | GI50 (HT29 colon) 53.9 µM | GI50 (HOP-62 NSCLC) 34 µM | GI50 (NCI-H522 lung) 28.5 µM | GI50 (A498 renal) 40.2 µM | GI50 (LOX IMVI melanoma) 20.5 µM | GI50 (NCI/ADR-RES ovarian) 40.8 µM | GI50 (786-0 renal) 16.2 µM | GI50 (TK-10 renal) 22.2 µM | GI50 (CCRF-CEM leukemia) 27.1 µM | GI50 (OVCAR-4 ovarian) 47.9 µM | GI50 (SF-539 CNS) 17.6 µM | GI50 (SF-295 CNS) > 100 µM | GI50 (K-562 leukemia) 29.2 µM | GI50 (IGROV1 ovarian) 21 µM | GI50 (UACC-62 melanoma) 27.7 µM | GI50 (DU-145 prostate) 39.1 µM | GI50 (KM12 colon) 29.1 µM | GI50 (RXF 393 renal) 32.3 µM | GI50 (MOLT-4 leukemia) 8.46 µM | GI50 (SK-MEL-28 melanoma) 28.7 µM | GI50 (SNB-19 CNS) 43 µM | GI50 (U251 CNS) 31.3 µM | GI50 (MCF7 breast) 30.9 µM | GI50 (OVCAR-8 ovarian) 31.9 µM | GI50 (CAKI-1 renal) 14.7 µM | GI50 (COLO 205 colon) 34.3 µM | GI50 (OVCAR-3 ovarian) 18 µM | GI50 (SN12C renal) 31.1 µM
33.9 µM: TGI (CAKI-1 renal)
> 100 µM: TGI (HCT-15 colon) | TGI (M14 melanoma) | TGI (SK-OV-3 ovarian) | TGI (HCC-2998 colon) | TGI (SW-620 colon) | TGI (A549 NSCLC) | TGI (SK-MEL-2 melanoma) | TGI (EKVX NSCLC) | TGI (SR leukemia) | TGI (NCI-H460 lung) | TGI (T-47D breast) | TGI (SF-268 CNS) | TGI (RPMI-8226 leukemia) | TGI (HCT-116 colon) | TGI (HS 578T breast) | TGI (HT29 colon) | TGI (A498 renal) | TGI (LOX IMVI melanoma) | TGI (NCI/ADR-RES ovarian) | TGI (CCRF-CEM leukemia) | TGI (OVCAR-4 ovarian) | TGI (SF-295 CNS) | TGI (K-562 leukemia) | TGI (UACC-62 melanoma) | TGI (DU-145 prostate) | TGI (KM12 colon) | TGI (RXF 393 renal) | TGI (MOLT-4 leukemia) | TGI (SNB-19 CNS) | TGI (U251 CNS) | TGI (MCF7 breast) | TGI (OVCAR-8 ovarian) | TGI (COLO 205 colon) | TGI (SN12C renal)
